Measured values from patent US11103526B2, “Methods for treatment using small molecule potassium-sparing diuretics and natriuretics” (University of Pittsburgh—Of the Commonwealth System of …, priority 2016, dated 2021).

What was measured:
[1] = Protocol 2: renal microdialysate and urine levels after intravenous bolus (Example 12); conditions: after 33.5 μmoles/kg intravenous bolus
Protocol: Rats were prepared in a similar fashion to that described in Protocol 1, but with modifications. Specifically, microdialysis probes were inserted into the cortex and medulla of the right kidney and were perfused at 2 μl/min with 0.9% saline. The microdialysis probes used in this protocol were from Bioanalytical Systems (West Lafayette, Ind.; CMA/20 microdialysis probe 4 mm; outer diameter of 0.5 mm; 20,000 dalton membrane cut-off). After initiating the probe perfusions, the infusion rate of 0.9% saline via the jugular vein was reduced to 25 μl/min to avoid volume overload. The rats then stabilized for two hours for the kidney to recover from the trauma induced by the probe insertions.
Next, microdialysate from the renal cortex and medulla as well as urine were collected for 30 minutes, and MABP and HR were time averaged during this first (basal) period. Rats were then randomized to receive 8-aminoguanosine, 8-aminoguanine, or vehicle using the dose and manner described for Protocol 1. Ten minutes after the treatments, microdialysate from the renal cortex and medulla as well as urine were again collected for 30 minutes, and MABP and HR were time averaged during this treatment period. After 15 minutes, this procedure was repeated. 8-Aminoguanosine and 8-aminoguanine were measured in urine and microdialysate using ultra-performance liquid chromatography-tandem mass spectrometry (LC-MS/MS) as described below.
Assay for 8-Aminoguanosine and 8-Aminoguanine. The purines in the urine and microdialysate were measured by LC-MS/MS using a method similar to a previously described method (Jackson et al., J Biol Chem 284:33097-33106, 2009), but with modifications. Purines were separated using reversed-phase ultra-performance liquid chromatography (Waters UPLC BEH C18 column, 1.7 μm beads; 2.1×150 mm; Milford, Mass.) and quantified by selected reaction monitoring using a triple quadrupole mass spectrometer (TSQ Quantum-Ultra; ThermoFisher Scientific, San Jose, Calif.) with a heated electrospray ionization source. The mobile phase included a linear gradient flow rate (300 uL/min) of 1% acetic acid in water (pH, 3; mobile phase A) as well as 100% methanol (mobile phase B) and was delivered with a Waters Acquity ultra-performance liquid chromatographic system. […]
Microdialysis probes were inserted into the renal cortex and medulla of anesthetized rats; the rats stabilized for 2 hours and were then administered an intravenous bolus of vehicle (control group), 8-aminoguanosine (33.5 μmoles/kg), or 8-aminoguanine (33.5 μmoles/kg). The levels of these compounds were then measured in the renal cortex and medulla as well as in the urine using LC-MS/MS.

[2] = test system: Dahl SS; test: MRI analysis of strokes in Dahl SS; format: in vivo, Dahl salt-sensitive rats; conditions: 8% salt diet, 10 mg/kg/day in drinking water, after 40 days
Description: This example describes an MRI analysis of strokes in Dahl SS (FIG. 16). Six-week-old Dahl SS were purchased from Charles River. When animals arrived, they were divided into 4 groups. Group A is the normal control group in which the Dahl SS were maintained on a 0.3% salt diet for the entire study. Group B is the positive control group in which the Dahl SS were maintained on an 8% salt diet for the entire study. Group C is the 8-aminoguanosine group in which Dahl SS were maintained on an 8% salt diet with 10 mg/kg/day of 8-aminoguanosine in their drinking water for the entire study. Group D is the 8-aminoguanine group in which the Dahl SS were maintained on an 8% salt diet with 10 mg/kg/day of 8-aminoguanine in their drinking water for the entire study. After 40 days of treatment, the rats were transported to an MRI facility for T2-weighted MRI of the brain.

[3] = test system: DOCA-salt hypertension; test: DOCA-salt hypertension, long-term MABP by radiotelemetry; format: in vivo, rats; conditions: for development of DOCA-salt hypertension / basal MABP: 5 mg/kg/day; for development of DOCA-salt hypertension: initiated 13 days before inducing DOCA-salt hypertension; for basal MABP: pretreatment 13 days before inducing DOCA-salt hypertension
Protocol: This example describes the effects of 8-aminoguanosine and 8-aminoguanine on DOCA-salt hypertension. Rats were instrumented for long-term and continuous measurement of arterial blood pressure by radiotelemetry as recently described (Jackson E K et al., Hypertension, 65:238-249, 2015). After at least 20 days of from the time of radiotransmitter implantation, hypertension was induced in the animals by removing one kidney, subcutaneously administering deoxycorticosterone acetate (30 mg/kg twice weekly), and providing 1% NaCl as drinking water (i.e., DOCA-salt hypertension). At this time, some animals were also randomized to receive either drinking water without 8-aminoguanosine or drinking water containing 8-aminoguanosine (10 mg/kg/day). In two other experiments, 8-aminoguanosine ([…]) or 8-aminoguanine (5 mg/kg/day) was administered 13 days before DOCA-salt hypertension was induced.
Results. Three studies were conducted to assess the effects of 8-aminoguanosine and 8-aminoguanine on DOCA-salt hypertension. In one study, DOCA-salt hypertension was induced at the same time that treatment with 8-aminoguanosine (10 mg/kg/day) was initiated. In two other studies, treatment with 8-aminoguanosine (5 mg/kg/day) or 8-aminoguanine (5 mg/kg/day) was initiated 13 days before inducing DOCA-salt hypertension. Treatments were maintained for the duration of the studies, and the MABP was continuously monitored by radiotelemetry. As shown in FIGS. 10A-10C, 8-aminoguanosine at 10 mg/kg/day prevented DOCA-salt hypertension.

[4] = test system: Dahl salt-sensitive rats (Dahl SS); test: Survival of Dahl SS on high-salt diet; format: in vivo; conditions: for median survival time: 10 mg/kg/day beginning 23 days before high-salt (8% NaCl) diet, control 70 days; for hemiparalysis before death / increase in lifespan: 10 mg/kg/day; for hemiparalysis before death: high-salt diet; for increase in lifespan: versus control group on high-salt diet
Protocol: This example describes the long-term effects of 8-aminoguanine (FIG. 15A) and 8-aminoguanosine (FIG. 15B) on survival in Dahl salt-sensitive rats (Dahl SS). Dahl SS are a well-established model of salt-sensitive hypertension. The control group of Dahl SS received only normal drinking water; whereas the treatment group received 8-aminoguanine or 8-aminoguanosine (10 mg/kg/day) beginning 23 days before starting a high-salt (8% NaCl) diet and continuing until all animals expired. The control group was also provided a high-salt diet at the same time as the treated group. FIGS. 15A-15B show survival curves for the control group versus the 8-aminoguanine-treated group or 8-aminoguanosine-treated group.

[5] = test system: RBCs from SCD patients (HbSS); test: Hypoxia-induced sickling of RBCs from SCD patients; format: cell-based, human
Protocol: In addition to causing PH in SCD patients and HIV-infected patients, the contribution of PNPase to RBC sickling in SCD patients was assessed. Fresh RBCs were obtained from two adult SCD patients (HbSS); the RBCs were diluted in F-10 HAM buffer to a final hematocrit of 4%. Next, glucose was added for a final concentration of 5.5 mmol/L, and the samples were incubated at room air/temperature in 12-well plates. The RBCs were then treated with either vehicle, 8-aminoguanosine (2 μmol/L), inosine (2 μmol/L), or an 8-aminoguanosine and inosine combination. After 1.5 hours, the RBCs were placed in a hypoxic glove box and maintained under hypoxia (5% 02) for 3 hours, while undergoing mild agitation. At the end of incubation, to prevent reoxygenation-derived morphological changes, the RBCs were fixed under hypoxic conditions in the hypoxic glove box. The samples were assayed for percent sickling.

[6] = test system: Sugen 5416+hypoxia-induced PH; test: Sugen 5416+hypoxia-induced angioproliferative pulmonary hypertension; format: in vivo, female Sprague Dawley rats; conditions: 30 mg/kg/day in drinking water
Description: A total of 36 female Sprague Dawley rats were used to determine whether administration of the PNPase inhibitor 8-aminoguanosine attenuates development of angioproliferative PH in animals with Sugene5416+hypoxia-induced PH. The animals were randomly assigned to receive subcutaneous injection of vehicle [(control group; n=8; 0.5% (w/v) carboxymethylcellulose sodium, 0.9% (w/v) sodium chloride, 0.4% (v/v) polysorbate 80, and 0.9% (v/v) benzyl alcohol in deionized water] or subcutaneous injection of SU5416 20 mg/kg (n=16; SU+Hx group). A subset of the SU5416-treated animals received 8-aminoguanosine (30 mg/kg/day in drinking water (n=12; 8-amino-guanosine group). On day 0, all SU5416-treated animals (SU+Hx and 8-aminoguanosine groups) were exposed to chronic hypoxia for 3 weeks. The animals were placed into normobaric plexiglas chambers (BioSpherix, Redfield, N.J., USA). The chambers were continuously flushed with nitrogen to maintain 10% oxygen and low CO2 concentrations (<0.5%) with the O2 and CO2 concentrations continuously monitored (PROOX110, BioSpherix oxygen controller and LB-2 CO2 analyzer, Sensormedics). At day 21, the animals were returned to a normoxic environment. Three weeks later (day 42), the animals were anesthetized and instrumented for RVPSP measurements. A PE-240 polyethylene catheter was inserted into the trachea to facilitate breathing, and the SPR-513 catheter (Millar Instruments) was inserted into right jugular vein and advanced into RV for RVPSP measurements. After 20-30-minutes of stabilization, RVPSP was recorded over 20 minutes. The animals were euthanized by anesthetic overdose, and the heart and lungs were collected for morphometric analyses.

| Structure (SMILES) | interstitial levels of 8-aminoguanine in the renal cortex ([1]; microdialysate) | interstitial levels of 8-aminoguanine in the renal medulla ([1]; microdialysate) | urinary levels of 8-aminoguanine ([1]; urine) | urinary levels of 8-aminoguanosine ([1]; urine) | stroke detected by T2-weighted MRI of the brain [2] | development of DOCA-salt hypertension [3] | basal MABP [3] | median survival time [4] | hemiparalysis before death [4] | increase in lifespan [4] | hypoxia-induced sickling of RBCs ([5]; 2 μmol/L, 1.5 hours pre-incubation, then hypoxia for 3 hours) | effect on the inhibitory effects of inosine on hypoxia-induced sickling ([5]; 8-aminoguanosine (2 μmol/L) combined with inosine (2 μmol/L)) | Fulton index ([6]; day 42) | RV contractility ([6]; day 42) | RV end diastolic pressure (RV EDP) ([6]; day 42) | right ventricular peak systolic pressure (RVPSP) ([6]; day 42) | grade 6 necrotizing arteritis lesions ([6]; histopathology) | occlusive vascular lesions ([6]; histopathology) | plexiform vascular lesions ([6]; histopathology) | DOCA-salt hypertension (MABP) ([3]; 10 mg/kg/day in drinking water, started when hypertension was induced) |
| --- | --- | --- | --- | --- | --- | --- | --- | --- | --- | --- | --- | --- | --- | --- | --- | --- | --- | --- | --- | --- |
| Nc1nc2[nH]c(N)nc2c(=O)[nH]1 [8-aminoguanine, 8-Aminoguanine] | immediate, sustained, similar, and large increases | immediate, sustained, similar, and large increases | immediate, sustained, similar, and large increases | did not affect | protect against strokes | markedly attenuated | did not affect | 108 days | did not exhibit hemiparalysis | 54% | – | – | – | – | – | – | – | – | – | – |
| Nc1nc2c(nc(N)n2[C@@H]2O[C@H](CO)[C@@H](O)[C@H]2O)c(=O)[nH]1 [8-aminoguanosine, 8-Aminoguanosine] | – | – | – | – | protect against strokes | markedly attenuated | did not affect | 108 days | did not exhibit hemiparalysis | 54% | significantly reduced | potentiated | decreased | improved | decreased | significantly reduced | prevented sporadic occurrence | reduced the number | reduced the number | prevented |
